From PubChem BioAssay AID248 (DTP/NCI, 2004)
Where “and” joins values, the source holds several entries; their conditions need not be identical. Equal entries are not always repeated. Toxic doses and inconclusive results are not listed. Rule as the data show it: active = T/C of 150% or more; inactive = T/C below 125%.

Tested on: L1210 leukemia ip in BDF1 mice, survival T/C
Test: NCI In Vivo Anticancer Drug Screen. Data for tumor model L1210 Leukemia (intraperitoneal) in B6D2F1 (BDF1) mice
Settings: endpoint: mean survival time, higher = longer survival
Outline: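 Transplantable tumor model; survival measured in treated vs vehicle control mice. Value = treated/control.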

[1] = dose: 200.0 mg/kg/injection, schedule: Q01DX009 (ip), vehicle: saline
[2] = dose: 100.0 mg/kg/injection, schedule: Q04DX003 (ip), vehicle: Klucel (hydroxypropylcellulose) (HPC)
[3] = dose: 200.0 mg/kg/injection, schedule: Q04DX003 (ip), vehicle: Klucel (hydroxypropylcellulose) (HPC)
[4] = dose: 50.0 mg/kg/injection, schedule: Q01DX009 (ip), vehicle: saline with Tween-80
[5] = dose: 100.0 mg/kg/injection, schedule: Q04DX002 (ip), vehicle: Klucel (hydroxypropylcellulose) (HPC)
[6] = dose: 200.0 mg/kg/injection, schedule: Q04DX002 (ip), vehicle: Klucel (hydroxypropylcellulose) (HPC)
[7] = dose: 400.0 mg/kg/injection, schedule: Q04DX002 (ip), vehicle: Klucel (hydroxypropylcellulose) (HPC)
[8] = dose: 100.0 mg/kg/injection, schedule: Q04DX003 (ip), vehicle: saline
[9] = dose: 200.0 mg/kg/injection, schedule: Q04DX003 (ip), vehicle: saline
[10] = dose: 400.0 mg/kg/injection, schedule: Q04DX003 (ip), vehicle: saline
[11] = dose: 100.0 mg/kg/injection, schedule: Q01DX001 (ip), vehicle: saline
[12] = dose: 200.0 mg/kg/injection, schedule: Q01DX001 (ip), vehicle: saline
[13] = dose: 400.0 mg/kg/injection, schedule: Q01DX001 (ip), vehicle: saline
[14] = dose: 100.0 mg/kg/injection, schedule: Q04DX003 (ip), vehicle: saline with Tween-80
[15] = dose: 200.0 mg/kg/injection, schedule: Q04DX003 (ip), vehicle: saline with Tween-80

Measured: T/C

Cc1c2ccc3ccccc3c2c[n+]2ccccc12
inactive: dose: 5.0 mg/kg/injection, schedule: Q01DX009 (ip), vehicle: saline sonified 102 % of control | dose: 7.0 mg/kg/injection, schedule: Q01DX009 (ip), vehicle: saline sonified 116 % of control and 120 % of control | dose: 10.7 mg/kg/injection, schedule: Q01DX009 (ip), vehicle: saline sonified 117 % of control | dose: 11.0 mg/kg/injection, schedule: Q01DX009 (ip), vehicle: saline sonified 120 % of control | dose: 15.0 mg/kg/injection, schedule: Q04DX003 (ip), vehicle: Klucel (hydroxypropylcellulose) (HPC) 108 % of control | dose: 21.0 mg/kg/injection, schedule: Q04DX003 (ip), vehicle: Klucel (hydroxypropylcellulose) (HPC) 107 % of control | dose: 24.0 mg/kg/injection, schedule: Q01DX009 (ip), vehicle: saline sonified 114 % of control | dose: 33.0 mg/kg/injection, schedule: Q04DX003 (ip), vehicle: Klucel (hydroxypropylcellulose) (HPC) 105 % of control | dose: 48.0 mg/kg/injection, schedule: Q04DX003 (ip), vehicle: Klucel (hydroxypropylcellulose) (HPC) 111 % of control

C=C(Cl)CSCCCS
inactive: dose: 100.0 mg/kg/injection, schedule: Q01DX009 (ip), vehicle: acetone 108 % of control | dose: 130.0 mg/kg/injection, schedule: Q01DX009 (ip), vehicle: saline 116 % of control | dose: 200.0 mg/kg/injection, schedule: Q01DX009 (ip), vehicle: acetone 123 % of control | [1] 120 % of control | dose: 300.0 mg/kg/injection, schedule: Q01DX009 (ip), vehicle: saline 120 % of control

O=C(COc1cccc(Cl)c1Cl)Nc1ccc[n+](Cc2ccc(S(=O)(=O)F)cc2)c1
inactive: [2] 104 % of control | [3] 100 % of control

O=Cc1cc2ccccc2cc1O
inactive: [4] 91 % of control | dose: 100.0 mg/kg/injection, schedule: Q01DX009 (ip), vehicle: saline with Tween-80 94 % of control | dose: 200.0 mg/kg/injection, schedule: Q01DX009 (ip), vehicle: saline with Tween-80 97 % of control

CSc1ccccc1NC(=O)c1cccc([N+](=O)[O-])c1
inactive: [5] 105 % of control | [6] 99 % of control | [7] 86 % of control

CCCCCCCCCCCCCCCCCC(=O)Oc1c(C(C)CC)cc([N+](=O)[O-])cc1[N+](=O)[O-] (stereo unspecified)
inactive: [5] 89 % of control | [6] 86 % of control | [7] 105 % of control

N#CCCP(=O)(CCC#N)CCC#N
inactive: dose: 50.0 mg/kg/injection, schedule: Q04DX003 (ip), vehicle: saline 98 % of control | [8] 98 % of control | [9] 101 % of control | [10] 101 % of control

O=S1(=O)CCCCC1c1ccccc1 (stereo unspecified)
inactive: [11] 87 % of control | dose: 100.0 mg/kg/injection, schedule: Q01DX009 (ip), vehicle: saline 98 % of control | [8] 122 % of control | [12] 95 % of control | [1] 87 % of control | [9] 97 % of control | [13] 93 % of control | [10] 98 % of control

CN(Nc1c([N+](=O)[O-])cc([N+](=O)[O-])cc1[N+](=O)[O-])c1ccc2ccccc2c1
inactive: dose: 50.0 mg/kg/injection, schedule: Q01DX009 (ip), vehicle: Klucel (hydroxypropylcellulose) (HPC) 103 % of control | dose: 100.0 mg/kg/injection, schedule: Q01DX009 (ip), vehicle: Klucel (hydroxypropylcellulose) (HPC) 95 % of control | [2] 95 % of control | dose: 200.0 mg/kg/injection, schedule: Q01DX009 (ip), vehicle: Klucel (hydroxypropylcellulose) (HPC) 95 % of control | [3] 92 % of control | dose: 400.0 mg/kg/injection, schedule: Q01DX009 (ip), vehicle: Klucel (hydroxypropylcellulose) (HPC) 98 % of control | dose: 400.0 mg/kg/injection, schedule: Q04DX003 (ip), vehicle: Klucel (hydroxypropylcellulose) (HPC) 95 % of control

COP(=O)(OC)C(OC(=O)C(C)(C)SC(C)=S)=C(C)C
inactive: [14] 103 % of control | [15] 96 % of control | dose: 400.0 mg/kg/injection, schedule: Q04DX003 (ip), vehicle: saline with Tween-80 94 % of control

Cc1ccc(N=Nc2ccc(C)cc2NC(=O)c2ccc(Cl)c(Cl)c2)cc1
inactive: [5] 120 % of control | [6] 103 % of control | [7] 97 % of control

CCCCCCCCC1N(C)CCCN1C
inactive: dose: 12.5 mg/kg/injection, schedule: Q01DX009 (ip), vehicle: saline with Tween-80 98 % of control | dose: 25.0 mg/kg/injection, schedule: Q01DX001 (ip), vehicle: saline with Tween-80 105 % of control | dose: 25.0 mg/kg/injection, schedule: Q01DX009 (ip), vehicle: saline with Tween-80 86 % of control | dose: 50.0 mg/kg/injection, schedule: Q01DX001 (ip), vehicle: saline with Tween-80 105 % of control | [4] 98 % of control and 101 % of control | dose: 100.0 mg/kg/injection, schedule: Q01DX001 (ip), vehicle: saline with Tween-80 97 % of control and 101 % of control

O=C1C=C(O)c2cc(Br)ccc2C1=O.[Ag]
inactive: dose: 100.0 mg/kg/injection, schedule: Q04DX002 (ip), vehicle: saline 105 % of control

CCCn1c(C)nc2c1C(=O)c1ccccc1C2=O
inactive: [11] 94 % of control | [8] 86 % of control | [12] 98 % of control | [9] 88 % of control | [13] 103 % of control | [10] 91 % of control

O=C(Nc1ccc(Cl)cc1)Nc1ccc(Cl)cc1
inactive: [14] 91 % of control | [15] 91 % of control

Oc1[nH]c2ccccc2c1N=NC(=S)Nc1ccccc1
inactive: dose: 75.0 mg/kg/injection, schedule: Q01DX001 (ip), vehicle: saline 91 % of control | dose: 150.0 mg/kg/injection, schedule: Q01DX001 (ip), vehicle: saline 87 % of control

N=C(N)Cc1ccc(CCc2ccc(CC(=N)N)cc2)cc1
inactive: dose: 12.5 mg/kg/injection, schedule: Q01DX Z (oral), vehicle: saline 97 % of control | dose: 25.0 mg/kg/injection, schedule: Q01DX Z (oral), vehicle: saline 100 % of control | dose: 50.0 mg/kg/injection, schedule: Q01DX Z (oral), vehicle: saline 97 % of control | dose: 100.0 mg/kg/injection, schedule: Q01DX Z (oral), vehicle: saline 100 % of control

CC(C)CC(CO)Cc1nc2ccccc2[nH]1 (stereo unspecified)
inactive: dose: 50.0 mg/kg/injection, schedule: Q04DX002 (ip), vehicle: Klucel (hydroxypropylcellulose) (HPC) 95 % of control | [5] 95 % of control | dose: 100.0 mg/kg/injection, schedule: Q04DX002 (ip), vehicle: other 105 % of control | dose: 100.0 mg/kg/injection, schedule: Q04DX003 (ip), vehicle: other 97 % of control | [6] 93 % of control and 92 % of control | dose: 200.0 mg/kg/injection, schedule: Q04DX002 (ip), vehicle: other 91 % of control and 92 % of control | dose: 200.0 mg/kg/injection, schedule: Q04DX003 (ip), vehicle: other 94 % of control | [7] 105 % of control | dose: 400.0 mg/kg/injection, schedule: Q04DX002 (ip), vehicle: other 102 % of control

C=CCc1c2c(ccc(=O)c1O)-c1c(cc(OC)c(OC)c1OC)CCC2NC(C)=O (stereo unspecified)
inactive: dose: 100.0 mg/kg/injection, schedule: Q01DX001 (ip), vehicle: carboxymethylcellulose (CMC) 117 % of control | dose: 177.6 mg/kg/injection, schedule: Q01DX001 (ip), vehicle: carboxymethylcellulose (CMC) 110 % of control and 119 % of control | dose: 200.0 mg/kg/injection, schedule: Q01DX001 (ip), vehicle: carboxymethylcellulose (CMC) 117 % of control | dose: 266.8 mg/kg/injection, schedule: Q01DX001 (ip), vehicle: carboxymethylcellulose (CMC) 95 % of control and 118 % of control

CCc1ccc(/C(C#N)=C/C=C/c2ccccc2)cc1
inactive: [5] 112 % of control | [6] 102 % of control | [7] 97 % of control

O=C(N/N=C/c1ccc2c(c1)OCO2)c1ccco1
inactive: dose: 100.0 mg/kg/injection, schedule: Q01DX001 (ip), vehicle: other 96 % of control | dose: 200.0 mg/kg/injection, schedule: Q01DX001 (ip), vehicle: other 93 % of control | dose: 400.0 mg/kg/injection, schedule: Q01DX001 (ip), vehicle: other 98 % of control

CCNC(=O)NCc1cc(C)ccc1C
inactive: [5] 111 % of control | [6] 108 % of control | [7] 108 % of control

O=C(CS(=O)(=O)Cc1ccccc1)N1CCOCC1
inactive: [11] 95 % of control | [12] 93 % of control | [1] 89 % of control | [13] 93 % of control | dose: 400.0 mg/kg/injection, schedule: Q01DX009 (ip), vehicle: saline 102 % of control

Cn1cnc2ncnn2c1=S
inactive: dose: 50.0 mg/kg/injection, schedule: Q01DX009 (ip), vehicle: saline 114 % of control | [8] 103 % of control | [9] 105 % of control
